Activity calls are given as the source filed them. No cut-off for these calls is given here.
Experiments:
Arabidopsis thaliana [1] = assay: Growth inhibition of Arabidopsis thaliana var. Columbia assessed as root tip puffing after 9 days by agarose-based test; type: functional, organism-based
Echinochloa crus-galli [2] = assay: Post-emergence herbicidal activity against Echinochloa crus-galli (barnyard grass) assessed as visual injury at 0.5 kg/ha after 9 days relative to control; type: functional
Avena fatua [3] = assay: Pre-emergence growth inhibition of Avena fatua assessed as visual injury at 1 kg/ha after 16 days relative to control; type: functional; design: scale not given: the % may be the effect or the level left
Helianthus annuus [4] = assay: Post-emergence growth inhibition of Helianthus annuus (sunflower) assessed as stunting at 0.5 to 4 kg/ha after 9 days; type: functional, organism-based
Lemna minor [5] = assay: Herbicidal activity against Lemna minor (common duckweed) assessed as visual injury at 1 ppm after 9 days relative to control; type: functional
Echinochloa crus-galli [6] = assay: Pre-emergence herbicidal activity against Echinochloa crus-galli (barnyard grass) assessed as visual injury at 4 kg/ha after 16 days relative to control; type: functional
Echinochloa crus-galli [7] = assay: Post-emergence herbicidal activity against Echinochloa crus-galli (barnyard grass) assessed as wilting at 0.5 to 4 kg/ha after 9 days; type: functional, organism-based
Avena fatua [8] = assay: Pre-emergence growth inhibition of Avena fatua after 16 days; type: functional
Echinochloa crus-galli [9] = assay: Post-emergence herbicidal activity against Echinochloa crus-galli (barnyard grass) assessed as stunting at 0.5 to 4 kg/ha after 9 days; type: functional, organism-based
Lemna minor [10] = assay: Herbicidal activity against Lemna minor (common duckweed) assessed as visual injury at 0.008 ppm after 9 days relative to control; type: functional
[11] = tested on: Agrostis stolonifera var. palustris; assay: Herbicidal activity against Agrostis stolonifera var. palustris assessed as visual injury at 0.2 ppm after 9 days relative to control; type: functional
Helianthus annuus [12] = assay: Post-emergence growth inhibition of Helianthus annuus (sunflower) assessed as visual injury at 2 kg/ha after 9 days relative to control; type: functional; design: scale not given: the % may be the effect or the level left
Abutilon theophrasti [13] = assay: Herbicidal activity against Abutilon theophrasti (velvetleaf) assessed as visual injury at 1 ug/seedling applied to leaf after 1 week relative to control; type: functional
[14] = tested on: Agrostis stolonifera var. palustris; assay: Herbicidal activity against Agrostis stolonifera var. palustris after 9 days by agarose-based test; type: functional
Helianthus annuus [15] = assay: Pre-emergence growth inhibition of Helianthus annuus (sunflower) assessed as visual injury at 0.5 kg/ha after 16 days relative to control; type: functional; design: scale not given: the % may be the effect or the level left
Avena fatua [16] = assay: Post-emergence growth inhibition of Avena fatua after 9 days; type: functional
Helianthus annuus [17] = assay: Pre-emergence growth inhibition of Helianthus annuus (sunflower) assessed as stunting at 0.5 to 4 kg/ha after 16 days; type: functional, organism-based
Echinochloa crus-galli [18] = assay: Post-emergence herbicidal activity against Echinochloa crus-galli (barnyard grass) assessed as visual injury at 1 kg/ha after 9 days relative to control; type: functional
Abutilon theophrasti [19] = assay: Herbicidal activity against Abutilon theophrasti (velvetleaf) assessed as visual injury at 10 ug/seedling applied to meristem after 1 week relative to control; type: functional
Avena fatua [20] = assay: Pre-emergence growth inhibition of Avena fatua assessed as stunting at 0.5 to 4 kg/ha after 16 days; type: functional, organism-based
Helianthus annuus [21] = assay: Post-emergence growth inhibition of Helianthus annuus (sunflower) assessed as visual injury at 4 kg/ha after 9 days relative to control; type: functional; design: scale not given: the % may be the effect or the level left
Helianthus annuus [22] = assay: Pre-emergence growth inhibition of Helianthus annuus (sunflower) after 16 days; type: functional
Abutilon theophrasti [23] = assay: Herbicidal activity against Abutilon theophrasti (velvetleaf) assessed as visual injury at 100 ug/seedling applied to leaf after 1 week relative to control; type: functional
Ipomoea hederacea [24] = assay: Pre-emergence herbicidal activity against Ipomoea hederacea (ivy-leaved morning glory) assessed as meristematic at 0.5 to 4 kg/ha after 16 days; type: functional, organism-based
Echinochloa crus-galli [25] = assay: Post-emergence herbicidal activity against Echinochloa crus-galli (barnyard grass) after 9 days; type: functional
Avena fatua [26] = assay: Post-emergence growth inhibition of Avena fatua assessed as visual injury at 0.5 kg/ha after 9 days relative to control; type: functional; design: scale not given: the % may be the effect or the level left
Ipomoea hederacea [27] = assay: Post-emergence herbicidal activity against Ipomoea hederacea (ivy-leaved morning glory) assessed as stunting at 0.5 to 4 kg/ha after 9 days; type: functional, organism-based
[28] = tested on: Agrostis stolonifera var. palustris; assay: Herbicidal activity against Agrostis stolonifera var. palustris assessed as root tip puffing after 9 days by agarose-based test; type: functional, organism-based
Abutilon theophrasti [29] = assay: Herbicidal activity against Abutilon theophrasti (velvetleaf) assessed as visual injury at 1 ug/seedling applied to meristem after 1 week relative to control; type: functional
Ipomoea hederacea [30] = assay: Post-emergence herbicidal activity against Ipomoea hederacea (ivy-leaved morning glory) after 9 days; type: functional
[31] = tested on: Agrostis stolonifera var. palustris; assay: Herbicidal activity against Agrostis stolonifera var. palustris assessed as visual injury at 0.008 ppm after 9 days relative to control; type: functional
[32] = tested on: Agrostis stolonifera var. palustris; assay: Herbicidal activity against Agrostis stolonifera var. palustris assessed as visual injury at 5 ppm after 9 days relative to control; type: functional
Ipomoea hederacea [33] = assay: Pre-emergence herbicidal activity against Ipomoea hederacea (ivy-leaved morning glory) assessed as visual injury at 1 kg/ha after 16 days relative to control; type: functional
Echinochloa crus-galli [34] = assay: Pre-emergence herbicidal activity against Echinochloa crus-galli (barnyard grass) assessed as visual injury at 1 kg/ha after 16 days relative to control; type: functional
Helianthus annuus [35] = assay: Herbicidal activity against Helianthus annuus (sunflower) assessed as visual injury at 10 ug/seedling applied to cotyledon after 1 week relative to control; type: functional
Echinochloa crus-galli [36] = assay: Post-emergence herbicidal activity against Echinochloa crus-galli (barnyard grass) assessed as visual injury at 4 kg/ha after 9 days relative to control; type: functional
Ipomoea hederacea [37] = assay: Herbicidal activity against Ipomoea hederacea (ivy-leaved morning glory) assessed as visual injury at 100 ug/seedling applied to meristem after 1 week relative to control; type: functional
Helianthus annuus [38] = assay: Pre-emergence growth inhibition of Helianthus annuus (sunflower) assessed as visual injury at 2 kg/ha after 16 days relative to control; type: functional; design: scale not given: the % may be the effect or the level left
Helianthus annuus [39] = assay: Post-emergence growth inhibition of Helianthus annuus (sunflower) assessed as visual injury at 0.5 kg/ha after 9 days relative to control; type: functional; design: scale not given: the % may be the effect or the level left
Echinochloa crus-galli [40] = assay: Post-emergence herbicidal activity against Echinochloa crus-galli (barnyard grass) assessed as meristematic at 0.5 to 4 kg/ha after 9 days; type: functional, organism-based
Helianthus annuus [41] = assay: Pre-emergence growth inhibition of Helianthus annuus (sunflower) assessed as visual injury at 1 kg/ha after 16 days relative to control; type: functional; design: scale not given: the % may be the effect or the level left
Arabidopsis thaliana [42] = assay: Growth inhibition of Arabidopsis thaliana var. Columbia after 9 days by agarose-based test; type: functional
Lemna minor [43] = assay: Herbicidal activity against Lemna minor (common duckweed) assessed as visual injury at 0.2 ppm after 9 days relative to control; type: functional
Avena fatua [44] = assay: Post-emergence growth inhibition of Avena fatua assessed as wilting at 0.5 to 4 kg/ha after 9 days; type: functional, organism-based
Avena fatua [45] = assay: Post-emergence growth inhibition of Avena fatua assessed as visual injury at 4 kg/ha after 9 days relative to control; type: functional; design: scale not given: the % may be the effect or the level left
Echinochloa crus-galli [46] = assay: Pre-emergence herbicidal activity against Echinochloa crus-galli (barnyard grass) assessed as visual injury at 2 kg/ha after 16 days relative to control; type: functional
Ipomoea hederacea [47] = assay: Herbicidal activity against Ipomoea hederacea (ivy-leaved morning glory) assessed as visual injury at 10 ug/seedling applied to meristem after 1 week relative to control; type: functional
Ipomoea hederacea [48] = assay: Post-emergence herbicidal activity against Ipomoea hederacea (ivy-leaved morning glory) assessed as wilting at 0.5 to 4 kg/ha after 9 days; type: functional, organism-based
Echinochloa crus-galli [49] = assay: Pre-emergence herbicidal activity against Echinochloa crus-galli (barnyard grass) assessed as visual injury at 0.5 kg/ha after 16 days relative to control; type: functional

Question: How did the “growth inhibition (GI)” value (Arabidopsis thaliana [1]) turn out when `CN1C(=O)[C@](O)(Cc2cccc(O)c2)N(C)C(=O)[C@@H]1Cc1c[nH]c2cccc([N+](=O)[O-])c12` [THAXTOMIN A] was run?
Answer: The value was “Active”.

Question: And the Activity (Echinochloa crus-galli [2])?
Answer: Its Activity is 10%.

Question: What about the Activity (Avena fatua [3]) of the same compound?
Answer: The Activity was 100%.

Question: And the Activity (Helianthus annuus [4])?
Answer: The Activity was “Active”.

Question: And the Activity (Lemna minor [5])?
Answer: Its Activity is 100%.

Question: And the Activity (Echinochloa crus-galli [6])?
Answer: Its Activity is 100%.

Question: What about the Activity (Echinochloa crus-galli [7]) of the same compound?
Answer: Its Activity is “Active”.

Question: What about the GR50 (Avena fatua [8]) of the same compound?
Answer: The GR50 was <500 g/ha.

Question: What about the Activity (Echinochloa crus-galli [9]) of the same compound?
Answer: Its Activity is “Active”.

Question: What about the Activity (Lemna minor [10]) of the same compound?
Answer: The Activity was 30%.

Question: And the Activity [11]?
Answer: Its Activity is 100%.

Question: And the Activity (Helianthus annuus [12])?
Answer: Its Activity is 85%.

Question: And the Activity (Abutilon theophrasti [13])?
Answer: Its Activity is 0%.

Question: What about the I50 [14] of the same compound?
Answer: Its I50 is 25 ppb.

Question: What about the Activity (Helianthus annuus [15]) of the same compound?
Answer: Its Activity is 70%.

Question: What about the GR50 (Avena fatua [16]) of the same compound?
Answer: Its GR50 is 2 kg/ha.

Question: And the Activity (Helianthus annuus [17])?
Answer: The Activity was “Active”.

Question: What about the Activity (Echinochloa crus-galli [18]) of the same compound?
Answer: The Activity was 20%.

Question: And the Activity (Abutilon theophrasti [19])?
Answer: Its Activity is 75%.

Question: What about the Activity (Avena fatua [20]) of the same compound?
Answer: The Activity was “Active”.

Question: And the Activity (Helianthus annuus [21])?
Answer: Its Activity is 85%.

Question: What about the GR50 (Helianthus annuus [22]) of the same compound?
Answer: Its GR50 is <500 g/ha.

Question: And the Activity (Abutilon theophrasti [23])?
Answer: Its Activity is 0%.

Question: And the Activity (Ipomoea hederacea [24])?
Answer: The Activity was “Active”.

Question: And the GR50 (Echinochloa crus-galli [25])?
Answer: Its GR50 is 2 kg/ha.

Question: And the Activity (Avena fatua [26])?
Answer: The Activity was 0%.

Question: And the Activity (Ipomoea hederacea [27])?
Answer: Its Activity is “Active”.

Question: And the Activity [28]?
Answer: The Activity was “Active”.

Question: What about the Activity (Abutilon theophrasti [29]) of the same compound?
Answer: Its Activity is 20%.

Question: What about the GR50 (Ipomoea hederacea [30]) of the same compound?
Answer: Its GR50 is <500 g/ha.

Question: And the Activity [31]?
Answer: Its Activity is 50%.

Question: What about the Activity [32] of the same compound?
Answer: Its Activity is 100%.

Question: And the Activity (Ipomoea hederacea [33])?
Answer: Its Activity is 100%.

Question: And the Activity (Echinochloa crus-galli [34])?
Answer: The Activity was 98%.

Question: And the Activity (Helianthus annuus [35])?
Answer: Its Activity is 0%.

Question: What about the Activity (Echinochloa crus-galli [36]) of the same compound?
Answer: Its Activity is 85%.

Question: What about the Activity (Ipomoea hederacea [37]) of the same compound?
Answer: The Activity was 80%.

Question: What about the Activity (Helianthus annuus [38]) of the same compound?
Answer: The Activity was 100%.

Question: What about the Activity (Helianthus annuus [39]) of the same compound?
Answer: Its Activity is 75%.

Question: And the Activity (Echinochloa crus-galli [40])?
Answer: The Activity was “Active”.

Question: What about the Activity (Helianthus annuus [41]) of the same compound?
Answer: The Activity was 100%.

Question: And the I50 (Arabidopsis thaliana [42])?
Answer: Its I50 is 10 ppb.

Question: And the Activity (Lemna minor [43])?
Answer: Its Activity is 95%.

Question: And the Activity (Avena fatua [44])?
Answer: Its Activity is “Active”.

Question: What about the Activity (Avena fatua [45]) of the same compound?
Answer: Its Activity is 80%.

Question: What about the Activity (Echinochloa crus-galli [46]) of the same compound?
Answer: The Activity was 100%.

Question: And the Activity (Ipomoea hederacea [47])?
Answer: Its Activity is 80%.

Question: What about the Activity (Ipomoea hederacea [48]) of the same compound?
Answer: Its Activity is “Active”.

Question: What about the Activity (Echinochloa crus-galli [49]) of the same compound?
Answer: The Activity was 98%.

Reference: ChEMBL document CHEMBL3046609, “Herbicidal properties of the thaxtomin group of phytotoxins” (2001)
